Test systems include A498 renal; COLO 205 colon; HOP-92 NSCLC; M14 melanoma; MCF7 breast; OVCAR-5 ovarian; SK-MEL-28 melanoma; SK-MEL-5 melanoma; SNB-19 CNS; U251 CNS.
Holding throughout (experiment): NCI-60 cell line screen, 48 h

Structures are written as SMILES. Where “and” joins values, the source holds several entries; their conditions need not be identical. Identical values can stand only once.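 In this assay, cells in 96-well plates receive the compound at five concentrations for 48 hours. Endpoints are linearly interpolated between the surrounding concentrations. At the GI50, growth is halved. TGI marks complete inhibition of growth.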 *1 amine or outer side, *2 acyl side, *3 side chain or, on linkers, in order; H or OH if unused. Where a SMILES comes first, the peptide text is derived from it. Bridges are numbered along the chain shown (N, C = ends). [ ]: non-standard residue; d: D form. The star is where a group is joined. Phe(3-Me) = Cc1cccc(C[C@H](N)C(=O)O)c1; NH(4-Cl-2-F-phenyl) = Fc1cc(Cl)ccc1N*; Pro(4R-Me) = C[C@H]1CN[C@H](C(=O)O)C1; Propanoyl(3-NMe2) = CN(C)CCC(=O)*; Hyp = O=C(O)[C@@H]1C[C@@H](O)CN1; aThr = C[C@H](O)[C@H](N)C(=O)O; Pip = O=C(O)[C@@H]1CCCCN1; CO = O=C([*:1])[*:2]

With `S=C(N/N=C(/c1ccccc1)c1ccccn1)Nc1cccc(Cl)c1`, the GI50 was 0.195 µM with A498 renal; 0.0168 µM in the experiment on COLO 205 colon; 1.65 µM in the experiment with HOP-92 NSCLC; 0.0154 µM in the experiment on M14 melanoma; 0.00544 µM in the experiment on MCF7 breast; 0.05 µM with OVCAR-5 ovarian. Besides, the GI50 with SK-MEL-28 melanoma is 2.09 µM; with SK-MEL-5 melanoma, 0.358 µM; with SNB-19 CNS, 0.786 µM; in the experiment with U251 CNS it was 0.0513 µM. The TGI is 1.72 µM and 6.29 µM with A498 renal; 2.2 µM and 21.6 µM with COLO 205 colon; 13 µM with HOP-92 NSCLC; 2.24 µM and 1.89 µM in the experiment on M14 melanoma; 0.918 µM and 6.01 µM with MCF7 breast; 4.47 µM with OVCAR-5 ovarian. Further, the TGI is 7.69 µM and 6.18 µM in the experiment with SK-MEL-28 melanoma; 1.46 µM and 4.08 µM in the experiment with SK-MEL-5 melanoma; 15.3 µM with SNB-19 CNS; 2.91 µM and 4.58 µM in the experiment with U251 CNS.
Consider `O=C1c2ccccc2C(=O)c2c1ccc1c2OCO1`, for which the TGI in the experiment with A498 renal, in the experiment on COLO 205 colon, with HOP-92 NSCLC, in the experiment with M14 melanoma, in the experiment on MCF7 breast and with OVCAR-5 ovarian was more than 100 µM in each case. The TGI in the experiment with SK-MEL-28 melanoma, in the experiment on SK-MEL-5 melanoma, in the experiment with SNB-19 CNS and in the experiment with U251 CNS was more than 100 µM throughout.
For `COc1cc2c3c(n(CCCCl)c(=O)c2cc1OC)-c1ccc(C#N)cc1C3=O`, the GI50 in the experiment with A498 renal was 16.1 µM; in the experiment with COLO 205 colon, 43.3 µM; with HOP-92 NSCLC it was 16.2 µM; in the experiment with M14 melanoma it was 9.24 µM; with MCF7 breast, 7.3 µM; in the experiment with OVCAR-5 ovarian, 33.6 µM. For the same molecule, the GI50 is more than 100 µM with SK-MEL-28 melanoma, 90.9 µM in the experiment on SK-MEL-5 melanoma, 22.1 µM in the experiment with SNB-19 CNS and 0.446 µM in the experiment on U251 CNS. Moreover, the TGI in the experiment on A498 renal was 58.8 µM; with COLO 205 colon, more than 100 µM; with HOP-92 NSCLC, 56.8 µM; in the experiment with M14 melanoma it was more than 100 µM; with MCF7 breast, more than 100 µM; in the experiment on OVCAR-5 ovarian, more than 100 µM. The TGI was more than 100 µM in the experiment on SK-MEL-28 melanoma, more than 100 µM in the experiment with SK-MEL-5 melanoma, more than 100 µM in the experiment with SNB-19 CNS and 2.83 µM with U251 CNS.
Regarding `CN1CCCCC1CCN1c2ccccc2Sc2ccc(S(C)=O)cc21` (stereo not given), the TGI in the experiment on A498 renal, in the experiment on COLO 205 colon, in the experiment on HOP-92 NSCLC, with M14 melanoma, in the experiment on MCF7 breast and with OVCAR-5 ovarian was more than 100 µM in each case. The TGI in the experiment on SK-MEL-28 melanoma, in the experiment with SK-MEL-5 melanoma, in the experiment on SNB-19 CNS and in the experiment on U251 CNS was more than 100 µM in each case.
`O=C1c2cccnc2C(=O)c2c1c(C(=O)OCCN1CCOCC1)c1ccccn21`: the GI50 in the experiment on A498 renal is 0.0236 µM; with COLO 205 colon it was 0.137 µM; in the experiment on HOP-92 NSCLC, 0.0262 µM; in the experiment on M14 melanoma, less than 0.01 µM; in the experiment with MCF7 breast, less than 0.01 µM; with OVCAR-5 ovarian, 0.276 µM. In addition, the GI50 was 0.0458 µM with SK-MEL-28 melanoma, 0.0189 µM in the experiment with SK-MEL-5 melanoma, less than 0.01 µM in the experiment on SNB-19 CNS and less than 0.0104 µM with U251 CNS. Also, the TGI in the experiment on A498 renal came to 1.65 µM; with COLO 205 colon it was 0.69 µM; with HOP-92 NSCLC it was 0.319 µM; with M14 melanoma, 0.116 µM; in the experiment on MCF7 breast it was 0.041 µM; in the experiment on OVCAR-5 ovarian, 1.65 µM. Further, the TGI with SK-MEL-28 melanoma was 2.12 µM; with SK-MEL-5 melanoma, 0.135 µM; in the experiment with SNB-19 CNS it was 3.15 µM; in the experiment with U251 CNS it was 0.767 µM.
Turning to `Nc1c(C(=O)Nc2ccccc2)sc2nc3c(cc12)CCCC3`, the GI50 in the experiment on A498 renal is 0.227 µM; with COLO 205 colon, 1.24 µM; with HOP-92 NSCLC, 0.509 µM; with M14 melanoma, 0.487 µM; in the experiment on MCF7 breast, 0.355 µM; in the experiment on OVCAR-5 ovarian it was 18.6 µM. Also, the GI50 was 14.7 µM in the experiment with SK-MEL-28 melanoma, 0.365 µM with SK-MEL-5 melanoma, 18.1 µM in the experiment on SNB-19 CNS and 0.473 µM in the experiment with U251 CNS. In addition, the TGI in the experiment on A498 renal was 30 µM; with COLO 205 colon, 13.8 µM; with HOP-92 NSCLC, more than 100 µM; in the experiment with M14 melanoma, more than 100 µM; with MCF7 breast, more than 100 µM; in the experiment on OVCAR-5 ovarian, more than 100 µM. The TGI with SK-MEL-28 melanoma is more than 100 µM; in the experiment on SK-MEL-5 melanoma, 2.24 µM; with SNB-19 CNS it was more than 100 µM; in the experiment with U251 CNS it was 34 µM.
On to `Cc1cccc(C[C@H](NC(=O)Nc2ccc(Cl)cc2F)C(=O)N[C@@H]2C(=O)N3C[C@H](OC(=O)CCN(C)C)C[C@H]3C(=O)N3CCCC[C@H]3C(=O)N[C@@H](C)C(=O)N3C[C@H](C)C[C@H]3C(=O)O[C@H]2C)c1` ({NH(4-Cl-2-F-phenyl)-CO}-[Phe(3-Me)][aThr][Hyp](Propanoyl(3-NMe2))[Pip]A[Pro(4R-Me)]; ester 2-C), for which the GI50 is 0.43 µM with A498 renal; 0.355 µM in the experiment with COLO 205 colon; 0.572 µM with HOP-92 NSCLC; 0.474 µM in the experiment on M14 melanoma; 0.394 µM in the experiment on MCF7 breast; 0.552 µM with OVCAR-5 ovarian. The GI50 is 0.706 µM with SK-MEL-28 melanoma, 0.46 µM with SK-MEL-5 melanoma, 0.389 µM in the experiment with SNB-19 CNS and 0.441 µM with U251 CNS. The TGI was found to be 3.29 µM in the experiment with A498 renal; 1.43 µM in the experiment on COLO 205 colon; 2.66 µM in the experiment with HOP-92 NSCLC; 1.89 µM with M14 melanoma; 1.83 µM in the experiment on MCF7 breast; 2.53 µM with OVCAR-5 ovarian. The TGI in the experiment with SK-MEL-28 melanoma was found to be 2.1 µM; in the experiment on SK-MEL-5 melanoma, 1.62 µM; in the experiment on SNB-19 CNS, 11.5 µM; in the experiment with U251 CNS, 7.27 µM.
For the molecule `COc1cc(NC(N)=NCCC(C)(C)c2ccc(C(F)(F)F)cc2)ncc1C#N`, the GI50 in the experiment with A498 renal is 1.88 µM; in the experiment on COLO 205 colon, 1.65 µM; in the experiment with HOP-92 NSCLC it was 1.3 µM; with M14 melanoma, 1.7 µM; in the experiment on MCF7 breast, 1.45 µM; with OVCAR-5 ovarian, 1.97 µM. For the same molecule, the GI50 was 2.01 µM in the experiment with SK-MEL-28 melanoma, 1.58 µM with SK-MEL-5 melanoma, 1.79 µM in the experiment on SNB-19 CNS and 1.67 µM in the experiment with U251 CNS. The TGI in the experiment with A498 renal came to 3.69 µM; in the experiment on COLO 205 colon, 3.21 µM; in the experiment on HOP-92 NSCLC, 2.74 µM; in the experiment with M14 melanoma, 3.24 µM; in the experiment with MCF7 breast it was 2.98 µM; in the experiment on OVCAR-5 ovarian it was 3.76 µM. The TGI in the experiment on SK-MEL-28 melanoma is 3.52 µM; with SK-MEL-5 melanoma, 2.94 µM; in the experiment on SNB-19 CNS, 3.44 µM; with U251 CNS, 3.05 µM.

(Values after PubChem BioAssay (NCI).)
